Test results taken from patent US11840495B2, “Compositions and methods related to di-substituted bicyclo[2.2.1] heptanamine-containing compounds” (The Broad Institute, Inc., priority 2020, dated 2023).
Where a name gives a salt, the structure may show the parent alone. Read-outs that look alike come from different tables or passages of the source.

Experiments:
Format in all cases: cell-based
[1] = test system: FS MUC1; test: Automated fixation/staining imaging assay, FS MUC1 spot cytoplasm (Example 3); details: 48 hour treatment time; for FS MUC1 Spot Cytoplasm Avg Emax: in % (unit assumed)
From the text: Prepared Renal Life Media by adding the supplements provided in the kit, substituting the FBS provided with Tet system approved FBS, and filtering the media (not including provided kit antibiotics). Thawed P6 vial(s) into T175 flasks 2 weeks prior to screening. Cells have to be passaged at least once after thaw before they can be used for screening. Hyperflasks can be used depending on the cell number needed. One confluent T175 flask should give at least 25 million cells. Cells should not be split beyond 1:2-1:4 and should only be trypsinized 1×/week. Cells must be spun down after each typsinization. Flasks must be confluent at time of plating. Flasks were incubated at 37° C., 5% CO2, 98% humidity. Cells can only be cultured for up to 10 passages before a new vial will need to be thawed.
• Day 1: Cells are plated. • Day 2: Compounds are transferred into assay plates with Echo (24 hours post-seeding) • Day 3: Begin preparing reagents for fixation and staining. • Day 4: Plates are fixed and stained (48 hour treatment time) on automated system and subsequently imaged on Opera Phenix. • Day 5: Data analysis and reporting is performed. Plate Preparation:
Calculated cell number needed and media volume needed for the run (MAX 20 plates/run). Cells were seeded into Synthemax-coated 384-well Cell Carrier plates at a density of 12,000 cells/well in 40 ul of Renal Life Media/well. Calculated for an extra 2-3 plate volumes to account for volume needed to fill the Combi cassette lines and left dead volume of cell suspension. (20 ul added with Combi after compound addition for total 60 ul assay volume, due to volume constraints of Echo transfer process). Trypsinized cells with 3 ml/T175 flask of TrypLE™ Express Enzyme 1X. Then spun down cells and resuspend in 10 ml media. Counted the cells using Nexcelom Cellometer K2. Prepared a mixture of 20 ul cell suspension/20 ul Cellometer AOPI Stain (#CS2-0106) and then add 20 ul of the 2 fold diluted mixture onto a Cellometer slide. Counted the cells by using the Dual Stain option and following the prompts. Recorded the live cell density, viability, and current passage number and date in notebook. Used the live cell density in calculating how to prepare the cell seeding suspension. Mixed the cell suspension thoroughly but gently. Once Combi cassette cleaned and cell suspension was made, dispensed 40 ul of cell suspension per well into the Synthemax-coated Cell Carrier assay plates. Immediately after seeding, stored the assay plates in the Liconic Incubator on the enclosed system in the 3100 automation lab, spaced plates out every other slot in stackers to maximize air flow.
Generated Arxspan Run ID to record compound transfer in CBIP. Spun down compound plates and assay plates 2000 RPM 10 sec. Load assay plates into Echo system incubator. Coordinated plate locations and record RUN ID with automation team member. Ran protocol for 100 nl transfer according to designated plate layout/template. When run was completed, added 20 ul of media/well for all assay plates with Combi in hood in Tissue culture room. Returned plates to the incubator in the enclosed system for 48 hour treatment time.
Heated up solution (100° C. on stir plate) and dissolved Roche Blocking reagent by stirring. The resulting solution was cloudy. Stored at 4° C. and used within one week or froze aliquots at −20° C. Combi 4: 1° Antibody Cocktail: Prepared the day of experiment. Swirled to mix. […] Prepared solution in Corning 250 ml conical flask and covered with tinfoil to protect from light.
Combi 5: 2° Antibody Cocktail: Prepared the day of experiment. Swirlrf to mix. […] Prepared solution in Corning 250 ml conical flask and covered with tinfoil to protect from light.
Removed media using BioTek plate washer. (PEKASP62) Moved plates to Combi. Combi 1. Dispensed 40 μl of 4% PFA (Combi on MEDIUM Speed). Incubated plates 20 minutes. Washed two times on BioTek plate washer. (PEK26X2)
Moved plates to Combi. Combi 2. […]

[2] = test system: MUC1-fs; test: Immunofluorescence imaging of MUC1-fs in P cells (Example 2); details: for EC50: 48 hr incubation, MUC1-fs; for Emax / ECMax (%): 48 hr; for Emax: DMSO = 0, JQ1 = −100% activity, in %; for ECMax (%): DMSO = 0, JQ1 (250 nM) = −100% activity
Method: (§1) P cells were seeded 24 hr prior to compound treatment at a density of 12,000 cells/well in 384 well Cell Carrier Ultra plates (6057308, Perkin Elmer), pre-coated with 0.25 mg/mL Synthemax II SC Substrate (3535, Corning). Compounds were used at 5 doses (35, 3.5, 0.35, 0.035 and 0.0035 μM) for the primary screen and 10 doses (16, 5.6, 1.8, 0.6, 0.21, 0.07, 0.02, 0.008, 0.002 and 0.0008 μM) for the following screens. The compounds, in two replicates, were transferred from compound source plates to the cell plates using the HighRes Pin Tool. DMSO was used as a negative control and JQ1 (250 nM) (a bromodomain inhibitor) was chosen as a positive control, based on earlier studies showing its potent effect on reducing total MUC1 mRNA levels (data not shown). After 48 hr incubation, cells were fixed for 20 min in 4% PFA (Electron Microscopy Sciences) in PBS, washed twice, then permeabilized (10 min) with 0.5% Triton-X100 (X100-100ML, Sigma-Aldrich) in PBS and washed once more. Cells were blocked for 10 min at RT with Blocking solution (100 mM Tris HCL pH8; 150 mM NaCL; 5 g/L Blocking Reagent [11096176001, Roche]), then incubated 90 min at RT with one of the following primary antibodies in Roche Blocking solution: 1:500, monoclonal Fab-A-VSH anti-MUC1-fs, AbD22655.2, Bio-Rad; 1:2000, monoclonal mouse anti-MUC1 (214D4), 05-652-KC, Millipore; 1:1000, monoclonal, Rabbit anti-GM130 (D6B1) XP, 12480, Cell signaling technology. The primary antibody cocktail was incubated at RT for 1.5 hr, followed by four PBS wash cycles. The secondary antibody cocktail contained four components that were all prepared at a 1:1000 dilution in the Roche blocking solution and consisted of Alexa Fluor® 488-conjugated AffiniPure F(ab′)2 Fragment Goat anti-Human IgG, 109-546-097, Jackson Immunoresearch; Alexa Fluor® 647-conjugated Goat anti-Rabbit IgG, A-21246, Thermo Fisher Scientific®; Alexa Fluor® 546 Goat anti-mouse IgG, A-21123, Thermo Fisher Scientific® and Hoechst 33342 stain (62249, Thermo Fisher Scientific®). The secondary antibody cocktail was incubated at RT for 45 min, followed by four PBS wash cycles. Finally, plates were sealed with a Plate Loc plate and stored in Liconic incubator at 10° C. until imaging. Following image analysis, three parameters were selected, i) MUC1-fs and ii) MUC1-wt total cytoplasm intensity (averaged per cell) and iii) cell number as was detected by Hoechst 33342 stained nuclei. The levels of MUC1-fs and MUC1-wt found following DMSO and JQ1 were defined as 0 and −100% activity, respectively. The values obtained for all compounds were normalized accordingly. Cell number was normalized to DMSO control.

[3] = test system: MUC1-wt; test: Immunofluorescence imaging of MUC1-wt in P cells (Example 2); details: for EC50: 48 hr incubation, MUC1-wt; for WT EMax / WT ECMax (%): 48 hr; for WT EMax: DMSO = 0, JQ1 = −100% activity, in %; for WT ECMax (%): DMSO = 0, JQ1 (250 nM) = −100% activity
Method: as §1

Row | IC50 [1] [µM] | EC50 ([2]; read-out: EC50) [µM] | EC50 ([3]; read-out: WT EC50) [µM] | EC50 ([2]; read-out: EC50(Spot)) [µM] | EC50 ([3]; read-out: WT EC50 (Cytoplasm)) [µM] | Molecule | FS MUC1 Spot Cytoplasm Avg Emax [1] | Emax [2] | WT EMax [3] | ECMax (%) [2] [%] | WT ECMax (%) [3] [%]
1 | 0.24 | – | – | – | – | CC(C)[C@H]1[C@H]2CC[C@H](C2)[C@]1(C)N (single isomer, unassigned) [Compound 251] | −72.07 | – | – | – | –
2 | 8.25 | – | – | – | – | CC(C)[C@H]1[C@H]2CC[C@H](C2)[C@]1(C)N (racemic) [Compound 255] | −67.5 | – | – | – | –
3 | 6.45 | – | – | – | – | CC(C)[C@@H]1[C@H]2CC[C@H](C2)[C@@]1(C)N (racemic) [Compound 256] | −65.11 | – | – | – | –
4 | 8.52 | – | – | – | – | CC(C)[C@H]1[C@H]2CC[C@H](C2)[C@@]1(C)N (racemic) [Compound 254] | −69.07 | – | – | – | –
5 | – | – | – | 0.47 | 11.9 | CC1(C)[C@@H]2CC[C@@H](C2)[C@@H]1N (single isomer, unassigned) [Compound 201-P2, hydrochloride] | – | – | – | −85.5 | 68.51
6 | 0.0969 | – | – | – | – | CC(C)[C@@H]1[C@H]2CC[C@H](C2)[C@@]1(C)N (single isomer, unassigned) [Compound 257] | −74.94 | – | – | – | –
7 | – | – | – | 5 | > 32 | C[C@H]1CC[C@]2(C1)[C@H]1CC[C@H](C1)[C@H]2N.Cl [Compound 211-P1-B] | – | – | – | −61.55 | 9.31
8 | – | – | – | 20.1 | > 32 | C[C@H]1CC[C@@]2(C1)[C@@H]1CC[C@@H](C1)[C@@H]2N.Cl [Compound 211-P2-A] | – | – | – | −23.56 | 3.22

More lines, now with the values behind:

Row | Molecule | IC50 [1] [µM] | EC50 ([2]; read-out: EC50) [µM] | EC50 ([3]; read-out: WT EC50) [µM] | EC50 ([2]; read-out: EC50(Spot)) [µM] | EC50 ([3]; read-out: WT EC50 (Cytoplasm)) [µM] | FS MUC1 Spot Cytoplasm Avg Emax [1] | Emax [2] | WT EMax [3] | ECMax (%) [2] [%] | WT ECMax (%) [3] [%]
9 | NC1C2CCC(C2)C12CC1CCC2C1 (racemic) [Compound 238-A, rac-2,2′-spirobi[bicyclo[2.2.1]heptan]-3-amine] | – | 0.006 | 1.8 | – | – | – | −108.1 | 38.7 | – | –
10 | CCC1(CC)[C@@H]2CC[C@@H](C2)[C@@H]1N [Compound 204-P2] | – | – | – | 0.02 | 1.09 | – | – | – | −90.34 | 65.02
11 | C[C@H]1CC[C@]2(C1)[C@@H]1CC[C@@H](C1)[C@@H]2N.Cl [Compound 210-P2-B] | – | – | – | 0.1 | > 16 | – | – | – | −66.02 | 30.21
12 | CC1(N)C2CCC(C2)C12CCCC2 (racemic) [Compound 233, rac-3-methylspiro[bicyclo[2.2.1]heptane-2,1′-cyclopentan]-3-amine] | – | 0.077 | > 16 | – | – | – | −86.9 | 21.8 | – | –
13 | C[C@@H]1CCC[C@]2(C1)[C@H]1CC[C@H](C1)[C@H]2N.Cl [Compound 214-P1-A] | – | – | – | 10.5 | > 32 | – | – | – | −26.27 | 3.96
14 | NC1C2CCC(C2)C12CCC(O)C2 (racemic) [Compound 249B, rac-3-aminospiro[bicyclo[2.2.1]heptane-2,1′-cyclopentan]-3′-ol] | – | 4.14 | > 16 | – | – | – | −72.5 | −6.7 | – | –
15 | Cl.N[C@@H]1[C@@H]2CC[C@@H](C2)C12CCCCCC2 (racemic) [Compound 215] | – | – | – | 0.11 | 8.87 | – | – | – | −56.54 | 63
16 | (1S,3R,4R)-spiro[bicyclo[2.2.1]heptane-3,1′-cyclohexan]-2-amine [Compound 212-P2] | – | – | – | 0.01 | 2.6 | – | – | – | −68.36 | 183.41
17 | Cl.N[C@@H]1[C@@H]2CC[C@@H](C2)C12CCCC(C(=O)N1CCOCC1)C2 (stereo partly drawn) [Compound 226, ((1S,3R,4R)-3-aminospiro[bicyclo[2.2.1]heptane-2,1′-cyclohexan]-3′-yl)(morpholino)methanone hydrochloride] | – | > 16 | > 16 | – | – | – | 7.8 | 9.0 | – | –
18 | CC1CCC2(CC1C)C1CCC(C1)C2N (racemic) [Compound 240, rac-3′,4′-dimethylspiro[bicyclo[2.2.1]heptane-2,1′-cyclohexan]-3-amine] | – | > 16 | > 16 | – | – | – | −34.8 | −11.1 | – | –
19 | CC[C@]1(Cc2ccccc2)[C@H]2CC[C@H](C2)[C@H]1N.Cl [Compound 219-P1, (1R,2R,3S,4S)-3-benzyl-3-ethylbicyclo[2.2.1]heptan-2-amine hydrochloride] | – | > 16 | > 16 | – | – | – | 5.6 | 12.4 | – | –
20 | C[C@@H]1CCC[C@@]2(C1)[C@@H]1CC[C@@H](C1)[C@@H]2N.Cl [Compound 214-P2-B] | – | – | – | 15.1 | > 32 | – | – | – | −29.12 | −4.96
21 | C[C@]1(N)[C@@H]2CC[C@@H](C2)C12CCCCC2.Cl [Compound 234, (1S,3S,4R)-3-methylspiro[bicyclo[2.2.1]heptane-2,1′-cyclohexan]-3-amine hydrochloride] | – | 4.83 | > 16 | – | – | – | −96 | 6.7 | – | –
22 | CC(=O)OC1CC2(CC1OC(C)=O)C1CCC(C1)C2N.Cl (racemic) [Compound 230, rac-3-aminospiro[bicyclo[2.2.1]heptane-2,1′-cyclopentane]-3′,4′-diyl diacetate hydrochloride] | – | > 16 | > 16 | – | – | – | −12.8 | −16.1 | – | –
